The values that follow come from patent publication US11168078B2, “Sulfoximine, sulfonimidamide, sulfondiimine and diimidosulfonamide compounds as inhibitors of indoleamine 2,3-dioxygenase” (Shanghai Fochon Pharmaceutical Co., Ltd., priority 2016, dated 2021).

The IC50 is the point on the concentration scale where inhibition reaches its midpoint. One may read the AUC(0-inf) as total exposure, with the tail of the curve extrapolated. By AUC(0-t) is commonly meant the area under the concentration-time curve up to a stated or last time point. A higher AUC(0-t) goes with more exposure. In general, Cmax refers to the maximum level reached in the sampled fluid or tissue. In general, half-life refers to how long it takes for the measured level to halve.

T1 sequence (P14902 whole entry): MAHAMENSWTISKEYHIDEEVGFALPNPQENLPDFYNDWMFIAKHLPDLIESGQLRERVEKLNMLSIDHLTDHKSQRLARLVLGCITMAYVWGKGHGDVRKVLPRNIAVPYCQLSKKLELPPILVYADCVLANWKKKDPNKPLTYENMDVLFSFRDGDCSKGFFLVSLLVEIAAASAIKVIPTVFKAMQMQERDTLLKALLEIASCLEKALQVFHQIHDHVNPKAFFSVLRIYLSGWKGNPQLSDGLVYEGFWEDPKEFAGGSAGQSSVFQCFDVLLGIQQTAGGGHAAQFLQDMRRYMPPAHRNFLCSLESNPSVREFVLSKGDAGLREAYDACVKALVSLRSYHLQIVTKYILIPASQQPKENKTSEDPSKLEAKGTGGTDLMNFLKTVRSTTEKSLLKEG

One series concerns the target T1, IDO (Homo sapiens, UniProt P14902).
T1 construct: endogenous in cells; host or cells: HeLa cells stimulated with recombinant human interferon-gamma
Kind of series: IDO Cell-Based NEK Green Assay (NFK Green, N-formyl kynurenine level). The note with it: Hela cells, 1 mM L-Tryptophan, 100 ng/mL recombinant human interferon-gamma, 2 days, NFK Green fluorescence. As for the experimental part: IDO Cell-Based NEK Green Assay
Materials: RPMI 1640 (phenol red free) (Invitrogen Cat. No. 11835030), Fetal Bovine Serum (Invitrogen Cat. No. 10099141), Penicillin-Streptomycin (Invitrogen Gibco Cat. No. 15140-122), Cellular assay kit (NTRC, Cat. No. NTRC-GSCell-1K), DMSO (Sigma, Cat. No. D2650), 384 wells_compound plate (Greiner, Cat. No. 781280), 384 wells_assay plate (Greiner, Cat. No. 781091)
The concentrations of test compounds varied from 5 μM to 0.76 nM with 3-fold dilution, 10 points, in duplicates.
Hela cells were seeded at 8,000 cells per well with RPMI/phenol red free media containing 10% FBS in a 384-well tissue culture plate. Mixture of compounds and 1 mM L-Tryptophan were added to cells; and then the recombinant human interferon-gamma was added at the final concentration of 100 ng/mL to activate IDO signaling. The cells were incubated for 2 days in 37° C. incubator with 5% CO2. After that, NFK Green was used to detect the N-formyl kynurenine level by following the commercial kit instruction. The fluorescent signal was measured by Envision plate Reader (excitation, 400/25; emission, 510/20). Curves are fit by XLFIT5 as % inhibition vs. log [compound concentration] using a 4 parameters logistic model 205.
(§1) Select compounds prepared as described above were assayed according to the biological procedures described herein.
Regarding `CS(C)(=O)=NCCNc1nonc1/C(=N/O)Nc1ccc(F)c(Cl)c1` [Example 28, (Z)-N-(3-chloro-4-fluorophenyl)-4-((2-((dimethyl(oxo)-λ^6-sulfanylidene)amino)ethyl)amino)-N′-hydroxy-1,2,5-oxadiazole-3-carboximidamide], the IC50 was determined as 14.5 nM.

For `CCS(=N)(=N)CCNc1nonc1/C(=N/O)Nc1ccc(F)c(C#N)c1` [Example 42, (Z)-N-(3-cyano-4-fluorophenyl)-4-{[2-(ethyldiimino-λ^6-sulfanyl)ethyl]amino}-N′-hydroxy-1,2,5-oxadiazole-3-carboximidamide], the 50% inhibitory concentration (IC50) is 196 nM.

On to `C#Cc1cc(N/C(=N\O)c2nonc2NCCS(C)(=N)=N)ccc1F` [Example 43, (Z)-4-({2-[diimino(methyl)-λ^6-sulfanyl]ethyl}amino)-N-(3-ethynyl-4-fluorophenyl)-N′-hydroxy-1,2,5-oxadiazole-3-carboximidamide], for which the IC50 came to 238 nM.

For `C#Cc1cc(N/C(=N\O)c2nonc2NCCS(=N)(=N)CC)ccc1F` [Example 44, (Z)-4-{[2-(ethyldiimino-λ^6-sulfanyl)ethyl]amino}-N-(3-ethynyl-4-fluorophenyl)-N′-hydroxy-1,2,5-oxadiazole-3-carboximidamide], the IC50 was found to be 73.5 nM.

“(Z)—N-(3-ethynyl-4-fluorophenyl)-N′-hydroxy-4-((2-(methylsulfonoamidimidamido)ethyl)amino)-1,2,5-oxadiazole-3-carboximidamide [Example 19]”: the IC50 is 13.3 nM.

Test system in another series: not listed separately
Description: Rat PK. It is filed as in vivo. The note with it: po, male SD rats, 5 mg/kg p.o., suspended in 0.5% methylcellulose in water, plasma. On the procedure:
Each test compounds was suspended in 0.5% methylcellulose in water.
Grouping male SD rats was administered with test compound at a dose of 5 mg/kg by oral. After administering, blood samples were collected at time points of 0.50, 1.0, 2.0, 4.0, 6.0, 8.0 and 24.0 h. Standard curve was plotted based on concentrations of the samples in a suitable range, and the concentration of test compounds in plasma samples were determined by using LC-MS/MS. Pharmacokinetic parameters were calculated according to plasma concentration-time curve by Phoenix WinNonLin 6.1 software.
Molecule `CS(C)(=O)=NCCNc1nonc1/C(=N/O)Nc1ccc(F)c(Br)c1` [Example 1, (Z)—N-(3-bromo-4-fluorophenyl)-4-((2-((dimethyl(oxo)-λ^6-sulfanylidene)amino)ethyl)amino)-N′-hydroxy-1,2,5-oxadiazole-3-carboximidamide] showed an AUC(0-inf) of 4030 ng·h/mL, an AUC(0-t) of 3840 ng·h/mL, a Cmax of 1500 ng/mL and a half-life of 3.83 h.

On to `CS(C)(=O)=NCCNc1nonc1/C(=N/O)Nc1ccc(F)c(Cl)c1` [Example 28, (Z)-N-(3-chloro-4-fluorophenyl)-4-((2-((dimethyl(oxo)-λ^6-sulfanylidene)amino)ethyl)amino)-N′-hydroxy-1,2,5-oxadiazole-3-carboximidamide], for which the AUC(0-inf) is 1120 ng·h/mL, the AUC(0-t) was 1100 ng·h/mL, the Cmax came out at 469 ng/mL and the half-life is 1.19 h.

Consider `NS(=O)(=O)NCCNc1nonc1C(=NO)Nc1ccc(F)c(Br)c1` [Reference Compound 1, (Z)—N-(3-bromo-4-fluorophenyl)-N′-hydroxy-4-((2-(sulfamoylamino)ethyl)amino)-1,2,5-oxadiazole-3-carboximidamide, reference compound], for which the AUC(0-inf) was found to be 924 ng·h/mL, the AUC(0-t) was determined as 880 ng·h/mL, the highest concentration (Cmax) is 169 ng/mL and the half-life is 2.48 h.

The target in a further series is T1, IDO. Kind of series: IDO Cell-Based LC/MS Assay. As to conditions: Hela cells, 100 ng/mL recombinant human interferon-gamma, 20 hours, LC/MS readout.
Text: IDO Cell-Based LC/MS Assay
Materials: RPMI 1640 (phenol red free) (Invitrogen Cat. No. 11835030), Fetal Bovine Serum (Invitrogen Cat. No. 10099141), Penicillin-Streptomycin (Invitrogen Gibco Cat. No. 15140-122), recombinant human interferon-gamma (R&D system, Cat. No. 285-IF-100), 5% (w/v) trichloroacetic acid (Alfa Aesar Cat. No. All 156), DMSO (Sigma, Cat. No. D2650), 96 wells_compound plate (Axygen, Cat. No. WIPP02280), 96 wells_assay plate (Greiner, Cat. No. 655090)
The concentrations of test compounds varied from 5 μM to 0.76 nM with 3-fold dilution, 9 points, in duplicates.
Hela cells were seeded at 40,000 cells per well with RPMI/phenol red free media containing 10% FBS in a 96-well tissue culture plate. After adding compound to cells, 100 ng/mL of recombinant human interferon-gamma was added to activate IDO signaling. The cells were incubated for 20 hours in 37° C. incubator with 5% CO2. Compound treatment was stopped by adding 5% trichloroacetic acid. Subsequently, the cell plate was further incubated at 50° C. for 30 minutes. After precipitation, the supernatant was collected and measured by triple quadrupole mass spectrometer (AB Sciex 4000), coupled with HPLC Shimadzu EC 20 AD and autosampler CTC PAL. Curves are fit by XLFIT5 as % inhibition vs. log [compound concentration] using a 4 parameters logistic model 205.
as §1
Consider `CS(C)(=O)=NCCNc1nonc1/C(=N/O)Nc1ccc(F)c(Br)c1` [Example 1, (Z)—N-(3-bromo-4-fluorophenyl)-4-((2-((dimethyl(oxo)-λ^6-sulfanylidene)amino)ethyl)amino)-N′-hydroxy-1,2,5-oxadiazole-3-carboximidamide], for which the IC50 came to 54 nM.

As to `CCS(=O)(CC)=NCCNc1nonc1/C(=N/O)Nc1ccc(F)c(Br)c1` [Example 2, (Z)—N-(3-bromo-4-fluorophenyl)-4-((2-((diethyl(oxo)-λ^6-sulfanylidene)amino)ethyl)amino)-N′-hydroxy-1,2,5-oxadiazole-3-carboximidamide], the IC50 was determined as 270 nM.

Regarding `O=S1(=NCCNc2nonc2/C(=N/O)Nc2ccc(F)c(Br)c2)CCOCC1` [Example 3, (Z)—N-(3-bromo-4-fluorophenyl)-N′-hydroxy-4-((2-((4-oxido-1,4λ^6-oxathian-4-ylidene)amino)ethyl)amino)-1,2,5-oxadiazole-3-carboximidamide], the IC50 is 153 nM.

`O=S1(=NCCNc2nonc2/C(=N/O)Nc2ccc(F)c(Br)c2)CCCCC1` [Example 4, (Z)—N-(3-bromo-4-fluorophenyl)-N′-hydroxy-4-((2-((1-oxidotetrahydro-2H-1λ^6-thiopyran-1-ylidene)amino)ethyl)amino)-1,2,5-oxadiazole-3-carboximidamide]: the IC50 was determined as 477 nM.

For the molecule `O=S1(=NCCNc2nonc2/C(=N/O)Nc2ccc(F)c(Br)c2)CCCC1` [Example 5, (Z)—N-(3-bromo-4-fluorophenyl)-N′-hydroxy-4-((2-((1-oxidotetrahydro-1λ^6-thiophen-1-ylidene)amino)ethyl)amino)-1,2,5-oxadiazole-3-carboximidamide], the half-maximal inhibitory concentration (IC50) was 195 nM.

As to `CS(=N)(=O)NCCNc1nonc1C(=NO)Nc1ccc(F)c(Br)c1` (centres unmarked) [Example 6, (Z)—N-(3-bromo-4-fluorophenyl)-N′-hydroxy-4-((2-(methylsulfonoimidamido)ethyl)amino)-1,2,5-oxadiazole-3-carboximidamide], the IC50 was 63.7 nM.

Consider `CS(=N)(=O)NCCCNc1nonc1C(=NO)Nc1ccc(F)c(Br)c1` (centres unmarked) [Example 8, (Z)—N-(3-bromo-4-fluorophenyl)-N′-hydroxy-4-((3-(methylsulfonoimidamido)propyl)amino)-1,2,5-oxadiazole-3-carboximidamide], for which the IC50 amounted to 18.6 nM.

Turning to `CC(CNc1nonc1/C(=N/O)Nc1ccc(F)c(Br)c1)NS(C)(=N)=O` (centres unmarked) [Example 9, (Z)—N-(3-bromo-4-fluorophenyl)-N′-hydroxy-4-((2-(methylsulfonoimidamido)propyl)amino)-1,2,5-oxadiazole-3-carboximidamide], the 50% inhibitory concentration (IC50) was determined as 123 nM.

`CC(CNS(C)(=N)=O)Nc1nonc1/C(=N/O)Nc1ccc(F)c(Br)c1` (centres unmarked) [Example 10, (Z)—N-(3-bromo-4-fluorophenyl)-N′-hydroxy-4-((1-(methylsulfonoimidamido)propan-2-yl)amino)-1,2,5-oxadiazole-3-carboximidamide]: the IC50 is 244 nM.

For `CN=S(C)(=O)NCCNc1nonc1C(=NO)Nc1ccc(F)c(Br)c1` (centres unmarked) [Example 11, (Z)—N-(3-bromo-4-fluorophenyl)-N′-hydroxy-4-((2-(N′-methylmethylsulfonoamidimidamido)ethyl)amino)-1,2,5-oxadiazole-3-carboximidamide], the concentration for half-maximal inhibition (IC50) was determined as 40 nM.

As for `CS(=N)(=O)NCCNc1nonc1/C(=N/O)Nc1ccc(F)c(Cl)c1` (centres unmarked) [Example 12, (Z)—N-(3-chloro-4-fluorophenyl)-N′-hydroxy-4-((2-(methylsulfonoimidamido)-ethyl)amino)-1,2,5-oxadiazole-3-carboximidamide], the 50% inhibitory concentration (IC50) stood at 12.3 nM.

`CS(=N)(=O)NCCNc1nonc1/C(=N/O)Nc1ccc(F)c(C#N)c1` (centres unmarked) [Example 13, (Z)—N-(3-cyano-4-fluorophenyl)-N′-hydroxy-4-((2-(methylsulfonoimidamido)-ethyl)amino)-1,2,5-oxadiazole-3-carboximidamide]: the IC50 was determined as 311 nM.

On to `CS(=N)(=O)NCCNc1nonc1/C(=N/O)Nc1ccc(F)c(C(F)(F)F)c1` (centres unmarked) [Example 14, (Z)—N-(4-fluoro-3-(trifluoromethyl)phenyl)-N′-hydroxy-4-((2-(methylsulfonoamidimidamido)ethyl)amino)-1,2,5-oxadiazole-3-carboximidamide], for which the IC50 stood at 20.1 nM.

`CS(=N)(=O)NCCNc1nonc1/C(=N/O)Nc1cccc(C(F)(F)F)c1` (centres unmarked) [Example 15, (Z)—N′-hydroxy-4-((2-(methylsulfonoamidimidamido)ethyl)amino)-N-(3-(trifluoromethyl)phenyl)-1,2,5-oxadiazole-3-carboximidamide]: the IC50 was 54.3 nM.

Consider `CCS(=N)(=O)NCCNc1nonc1/C(=N/O)Nc1cccc(C(F)(F)F)c1` (centres unmarked) [Example 16, (Z)-4-((2-(ethylsulfonoimidamido)ethyl)amino)-N′-hydroxy-N-(3-(trifluoromethyl)phenyl)-1,2,5-oxadiazole-3-carboximidamide], for which the IC50 worked out at 298 nM.
